According to patent US5227391A, “Method for treatment of neurodegenerative diseases” (R. J. Reynolds Tobacco Company, priority 1992, dated 1993):

Biological target: high affinity nicotinic receptors
Details: read-out: Ki (nM), inhibition of L-[3H]nicotine binding; mouse brain membranes (cerebellum removed), 10 nM L-[3H]nicotine, 2 hr at 4° C.; Ki calculated from IC50 by the method of Cheng et al.
Experimental: Mice were killed by cervical dislocation. Brains were removed and placed on an ice-cold platform. […] Prior to each centrifugation step, the suspension was incubated at 37° C. for 5 min. to promote hydrolysis of endogenous acetylcholine. The final pellet was overlayered with buffer and stored at -70° C.
The binding of L-[^3 H]nicotine was measured using a 2 hr. incubation at 4° C. Incubations contained about 500 μg of protein and were conducted in 12 mm×75 mm polypropylene test tubes in a final incubation volume of 250 μl. The incubation buffer was Krebs-Ringers HEPES containing 200 mM TRIS buffer, pH 7.5. The binding reaction was terminated by filtration of the protein containing bound ligand onto glass fiber filters (Micro Filtration Systems) that had been soaked in buffer containing 0.5 percent polyethyleneimine. Filtration vacuum was -50 to -100 torr. Each filter was washed five times with 3 ml of ice-cold buffer. The filtration apparatus was cooled to 2° C. before use and was kept cold through the filtration process. […] The inhibition of L-[^3 H]nicotine binding by test compounds was determined by including one of eight different concentrations of the test compound in the incubation.

For `CN1CCC[C@@H]1c1cccnc1` [(R)-(+)-nicotine], the Ki was 113 nM.
